For orientation: inhibition means the change of the read-out against control, counted positive when it falls.

The subject of data set [1] is RWPE-1. Kind of data set: Cytotoxicity against human RWPE-1 cells at 0.1 to 1 uM incubated for 24 hrs by MTT assay. It counts as toxicity, cell-based. The note with it: rwpe-1, 24 h, dose 0.1-1 µM. For orientation: Formazan colour is commonly taken as a measure of viable cells.
Data set [2] deals with LNCaP. Briefly: Inhibition of testosterone propionate induced PSA expression in human LNCaP cells pretreated with TP for 1 hr followed by compound addition at 1 to 10 uM by Western blotting analysis. The note with it: dose 1-10 µM. The class given is functional, cell-based.
Data set [3] has as its system LNCaP. Kind of data set: Inhibition of testosterone propionate induced AR expression in human LNCaP cells pretreated with TP for 1 hr followed by compound addition at 1 to 10 uM by Western blotting analysis. It counts as functional, cell-based. The note with it: dose 1-10 µM.
The nature of data set [4]: Inhibition of testosterone propionate induced 5AR2 expression in human LNCaP cells pretreated with TP for 1 hr followed by compound addition at 10 uM by Western blotting analysis. It counts as functional. A general note: A western blot detects proteins with antibodies after separation by electrophoresis.
Data set [5] can be described thus: Inhibition of testosterone propionate induced PSA expression in human LNCaP cells pretreated with TP for 1 hr followed by compound addition at 10 uM by Western blotting analysis. It counts as functional.
Data set [6] concerns RWPE-1. Briefly: Inhibition of testosterone propionate induced PCNA expression in human RWPE-1 cells pretreated with TP for 1 hr followed by compound addition at 1 to 10 uM by Western blotting analysis. It counts as functional, cell-based. The note with it: dose 1-10 µM.
Data set [7] can be described thus: Inhibition of testosterone propionate induced PSA expression in human RWPE-1 cells pretreated with TP for 1 hr followed by compound addition at 1 to 10 uM by Western blotting analysis. It counts as functional. Details: scale not given: the % may be the effect or the level left. The note with it: dose 1-10 µM.
The test system of data set [8] is LNCaP. Kind of data set: Suppression of testosterone propionate induced 5AR2 expression in human LNCaP cells pretreated with TP for 1 hr followed by compound addition at 10 uM by Western blotting analysis. The class given is functional, cell-based.
The test system of data set [9] is LNCaP. Kind of data set: Suppression of testosterone propionate induced AR expression in human LNCaP cells pretreated with TP for 1 hr followed by compound addition at 10 uM by Western blotting analysis. It counts as functional, cell-based.
Data set [10] has as its system LNCaP. Kind of data set: Suppression of testosterone propionate induced PSA expression in human LNCaP cells pretreated with TP for 1 hr followed by compound addition at 10 uM by Western blotting analysis. It counts as functional, cell-based.

The structures appear in SMILES notation. Calls of active or inactive are those of the source. The rule behind the calls is not given here.

Take `C[C@@H]1C[C@H]([C@@H](O)c2cccc3[n+]2CC[C@@H]3C)O[C@@]2(CC[C@H](C(=O)[O-])O2)C1`: the Activity result with RWPE-1 [1] was “Non-Toxic”; in data set [7], 65%. Also, the inhibition entry in the data set on LNCaP [2], in the data set with LNCaP [3] and with RWPE-1 [6] was “Active” throughout. The inhibition at 10 µM in data set [4] and in [5] was 61% in each case.
For the compound `C=C1C[C@H](C(=O)[O-])O[C@@]2(C1)C[C@@H](C)C[C@H]([C@@H](O)c1cccc3[n+]1CC[C@H]3C)O2`, the Activity entry in the data set on RWPE-1 [1] was “Non-Toxic”. Moreover, the inhibition entry in the data set on LNCaP [2] and in the data set on LNCaP [3] was “Active” in each case.
On to `C=C1C[C@H](C(=O)[O-])O[C@@]2(C1)C[C@@H](C)C[C@H]([C@@H](O)c1cccc3[n+]1CC[C@@H]3C)O2`, for which the Activity entry in the data set with RWPE-1 [1] is reported as “Non-Toxic”. Further, the inhibition result in the data set on LNCaP [3] was “Active”. Besides, the inhibition at 10 µM in [4] and in [5] was 53% throughout.
`CC(C)(C)NC(=O)[C@H]1CC[C@H]2[C@@H]3CC[C@H]4NC(=O)C=C[C@]4(C)[C@H]3CC[C@]12C`: the outcome in the data set on LNCaP [8], in the data set on LNCaP [9] and in the data set on LNCaP [10] was Active.

Values taken from ChEMBL document CHEMBL5120888, “Voratins A-C: Pyridinium Alkaloids from the Marine Dinoflagellate Effrenium voratum with Inhibitory Effects on Biomarkers for Benign Prostatic Hyperplasia” (J Nat Prod, 2022).
